Legend:
[1] = test system: Vascular smooth muscle cells (BO54); assay: Scratch-migration assay; format: cell-based, baboon; parameters: key to Migration Grade in an Undisturbed Region of the Well / Migration Grade in the Cleared Area of the Well: −=no migration; +1=minimal; +2=mild; +3=moderate; +4=marked (maximum density; limit of cell contact inhibition) migration
Protocol: (§1) Scratch assays to determine the extent of smooth muscle cell migration inhibition by cytochalasin B were performed in accordance with the following protocol:
(§2) Vascular smooth muscle cells (BO54) were derived from explants of baboon aortic smooth muscle, as described in Example 10. The cells were grown in flat bottom, six well tissue culture plates, which hold about 5 ml of medium. The vascular smooth muscle cells were plated at 200,000 cells/well and placed at 37° C. in a humidified 5% CO2 incubator for 18 hours. The wells were then scratched with a sterile portion of a single edge razor blade that was held by clamp or pliers and was brought aseptically into contact with the bottom of the well at a 90° angle. The cells from a small area along the scratch were removed by a sterile cotton tipped applicator while the blade was in contact with the bottom of the well. After incubation, the presence of cells in the “scratched” area is indicative of cell migration across the scratch line.
(§3) Briefly, a stock solution of cytochalasin B (Sigma Chemical Co.) in dimethyl sulfoxide (DMSO) at 1 mg/ml was prepared. Test dilutions of cytochalasin B or control medium were added. Each experiment included two sets of plates:
(§4) A set: Test agent exposure for 1, 3, 6, 8 and 10 days only; and
(§5) B set: Test agent exposure for 1, 3, 6, 8 and 10 days, followed by a seven day recovery time with control medium.
(§6) Both sets of plates were fixed (10% formalin in PBS) and stained (0.02% crystal violet) at the end of the timed exposures. Test concentrations for cytochalasin B were 1, 0.1 and 0.01 μg/ml, and a negative medium control was included. Fresh medium and drug were supplied 3 times per week.
(§7) In this Table, “M” indicates Migration Grade, wherein −=no migration; +1=minimal; +2=mild; +3=moderate; and +4=marked (maximum density; limit of cell contact inhibition) migration of vascular smooth muscle cells into the cleared area adjacent to the scratch. In this Table, “T” denotes a morphological Toxicity Grade, wherein −=no toxicity; +1=minimal; +2=mild; +3=moderate; and +4=marked toxicity. The migration results are expressed as “Grade in the Cleared Area of the Well/Grade in an Undisturbed Region of the Well.” The toxicity values represent a grade for all cells in each well.

[2] = test system: balloon traumatized pig femoral artery; assay: Sustained release adventitial wraps on balloon traumatized pig femoral artery (Table 16, Group 12); format: in vivo; details: Group 12: 30% wt/wt loaded silicone wraps
Text: To determine the efficacy of the local, sustained release dosage forms of cytochalasin B or taxol to inhibit restenosis, cytochalasin B or taxol in a supporting structure, e.g., a “wrap,” was applied to the adventitial tissue surrounding a balloon traumatized rabbit carotid artery (Groups 1-11) or a balloon traumatized pig femoral artery (Group 12) (Table 16).
While there was intimal proliferation in the arteries 3 weeks later, the proliferation was still less than the proliferation observed for the controls.

[3] = test system: Vascular smooth muscle cells (BO54); assay: Scratch-migration assay; format: cell-based, baboon; parameters: key: −=no migration; +1=minimal; +2=mild; +3=moderate; +4=marked (maximum density; limit of cell contact inhibition) migration
Protocol: as §1, §2, §3, §4, §5, §6, §7

[4] = 7-day Recovery Post Exposure, Day 1, 0.01 μg/mL
[5] = 7-day Recovery Post Exposure, Day 1, 0.1 μg/mL
[6] = 7-day Recovery Post Exposure, Day 1, 1.0 μg/mL
[7] = 7-day Recovery Post Exposure, Day 3, 0.01 μg/mL
[8] = 7-day Recovery Post Exposure, Day 3, 0.1 μg/mL
[9] = 7-day Recovery Post Exposure, Day 6, 0.1 μg/mL
[10] = 7-day Recovery Post Exposure, Day 6, 1.0 μg/mL
[11] = 7-day Recovery Post Exposure, Day 8, 0.01 μg/mL
[12] = 7-day Recovery Post Exposure, Day 8, 0.1 μg/mL
[13] = 7-day Recovery Post Exposure, Day 8, 1.0 μg/mL
[14] = 7-day Recovery Post Exposure, Day 10, 0.01 μg/mL
[15] = 7-day Recovery Post Exposure, Day 10, 0.1 μg/mL
[16] = 7-day Recovery Post Exposure, Day 10, 1.0 μg/mL
[17] = Continuous Exposure, Day 1, 0.01 μg/mL
[18] = Continuous Exposure, Day 1, 0.1 μg/mL
[19] = Continuous Exposure, Day 1, 1.0 μg/mL
[20] = Continuous Exposure, Day 3, 0.1 μg/mL
[21] = Continuous Exposure, Day 6, 0.01 μg/mL
[22] = Continuous Exposure, Day 6, 0.1 μg/mL
[23] = Continuous Exposure, Day 8, 0.01 μg/mL
[24] = Continuous Exposure, Day 8, 0.1 μg/mL
[25] = Continuous Exposure, Day 10, 0.01 μg/mL
[26] = Continuous Exposure, Day 10, 0.1 μg/mL

SMILES: C=C1[C@@H](C)[C@H]2[C@H](Cc3ccccc3)NC(=O)[C@]23OC(=O)/C=C/[C@H](O)CCC[C@@H](C)C/C=C/[C@H]3[C@@H]1O [cytochalasin B]
- morphological toxicity grade ([1]; 0.1 μg/ml, continuous exposure): −3 to +1
- Migration Grade in an Undisturbed Region of the Well [1, 4]: +4
- Migration Grade in the Cleared Area of the Well [1, 4]: +3
- Migration Grade in an Undisturbed Region of the Well [1, 5]: +4
- Migration Grade in the Cleared Area of the Well [1, 5]: +3
- Migration Grade in an Undisturbed Region of the Well [1, 6]: +3
- Migration Grade in the Cleared Area of the Well [1, 6]: +2
- Migration Grade in an Undisturbed Region of the Well [1, 7]: +4
- Migration Grade in the Cleared Area of the Well [1, 7]: +3
- Migration Grade in an Undisturbed Region of the Well [1, 8]: +4
- Migration Grade in the Cleared Area of the Well [1, 8]: +3
- Migration Grade in an Undisturbed Region of the Well ([1]; 7-day Recovery Post Exposure, Day 6, 0.01 μg/mL): +4/+4
- Migration Grade in an Undisturbed Region of the Well [1, 9]: +4
- Migration Grade in the Cleared Area of the Well [1, 9]: +3
- Migration Grade in an Undisturbed Region of the Well [1, 10]: +3
- Migration Grade in the Cleared Area of the Well [1, 10]: +2
- Migration Grade in an Undisturbed Region of the Well [1, 11]: +4/+4
- Migration Grade in the Cleared Area of the Well [1, 11]: +4/+4
- Migration Grade in an Undisturbed Region of the Well [1, 12]: +4
- Migration Grade in the Cleared Area of the Well [1, 12]: +3
- Migration Grade in an Undisturbed Region of the Well [1, 13]: +3
- Migration Grade in the Cleared Area of the Well [1, 13]: +2
- Migration Grade in an Undisturbed Region of the Well [1, 14]: +4/+4
- Migration Grade in the Cleared Area of the Well [1, 14]: +4/+4
- Migration Grade in an Undisturbed Region of the Well [1, 15]: +4/+4
- Migration Grade in the Cleared Area of the Well [1, 15]: +4/+4
- Migration Grade in an Undisturbed Region of the Well [1, 16]: +3
- Migration Grade in the Cleared Area of the Well [1, 16]: +2
- Migration Grade in an Undisturbed Region of the Well [1, 17]: +3
- Migration Grade in the Cleared Area of the Well [1, 17]: +1
- Migration Grade in an Undisturbed Region of the Well [1, 18]: +3
- Migration Grade in the Cleared Area of the Well [1, 18]: +1
- Migration Grade in an Undisturbed Region of the Well [1, 19]: +2
- Migration Grade in an Undisturbed Region of the Well [1, 20]: +4
- Migration Grade in an Undisturbed Region of the Well [1, 21]: +4
- Migration Grade in the Cleared Area of the Well [1, 21]: +3
- Migration Grade in an Undisturbed Region of the Well [1, 22]: +4
- Migration Grade in the Cleared Area of the Well [1, 22]: +2
- Migration Grade in an Undisturbed Region of the Well ([1]; Continuous Exposure, Day 6, 1.0 μg/mL): +2
- Migration Grade in an Undisturbed Region of the Well [1, 23]: +4
- Migration Grade in the Cleared Area of the Well [1, 23]: +3
- Migration Grade in an Undisturbed Region of the Well [1, 24]: +4
- Migration Grade in the Cleared Area of the Well [1, 24]: +2
- Migration Grade in an Undisturbed Region of the Well ([1]; Continuous Exposure, Day 8, 1.0 μg/mL): +2
- Migration Grade in an Undisturbed Region of the Well [1, 25]: +4
- Migration Grade in the Cleared Area of the Well [1, 25]: +3
- Migration Grade in an Undisturbed Region of the Well [1, 26]: +4
- Migration Grade in the Cleared Area of the Well [1, 26]: +2
- Migration Grade in an Undisturbed Region of the Well ([1]; Continuous Exposure, Day 10, 1.0 μg/mL): +2
- intimal proliferation [2]: significantly inhibited intimal proliferation for the first two weeks
- Toxicity Grade [3, 6]: +2
- Toxicity Grade ([3]; 7-day Recovery Post Exposure, Day 3, 1.0 μg/mL): +1
- Toxicity Grade [3, 10]: +3
- Toxicity Grade [3, 13]: +3
- Toxicity Grade [3, 16]: +3
- Toxicity Grade [3, 19]: +3
- Toxicity Grade [3, 20]: +1
- Toxicity Grade ([3]; Continuous Exposure, Day 3, 1.0 μg/mL): +3
- Toxicity Grade [3, 22]: +1
- Toxicity Grade [3, 24]: +1
- Toxicity Grade [3, 26]: +1

Reference: patent publication US6663881B2 (priority 1993, dated 2003)
